Measurements from US8252557B2, “Peptide-containing culture medium for culturing animal cell” (Chugai Seiyaku Kabushiki Kaisha, priority 2008, dated 2012).

Test system: humanized IgG (anti-glypican-3 antibody)-producing CHO cell line
Assay: Antibody-producing fed-batch culture, CHO cell line transfected with antibody gene
Format: cell-based
Details: for concentration of lactic acid during culture: compared to fed-batch medium not containing the peptide; for antibody concentration after the 14-day culture: fed day 3-14 at 1.0 g/hr per L, control about 1.6 g/L; for antibody concentration higher than control: peptide-containing fed-batch medium vs fed-batch medium without peptide, day 14
Protocol: (§1) The initial culture medium was placed in a jar-type cell culture system, and then the CHO cell line was added thereto into a concentration of 2×10^5 cells/mL and was cultured under the conditions of 37° C. and 10% CO2. During the culture period of 14 days, a pH level of not lower than 7.0 and a dissolved oxygen level of 40% were automatically maintained. The fed-batch medium was continuously fed from the 3rd day to the 14th day of the culture at a constant flow rate (1.0 g/hr for 1 L of the initial culture medium). The culture medium was sampled at the start of the culture and on the 3rd, 5th, 7th, 10th, 12th, and 14th days. The number of viable cells in each sampled culture solution was counted by trypan blue staining. The antibody concentration in the centrifuged supernatant of each culture solution was measured by affinity chromatography using protein A, and the concentration of lactic acid was measured by an immobilized enzyme process.
as §1, with “concentration” for “number”, “the produced” for “viable cells in each sampled culture solution was counted by trypan blue staining. The”, “antibody” for “antibody concentration”, “the” for “the centrifuged”, “sample” for “solution”, “A; the survival rate was measured by trypan blue staining;” for “A,”

[1] = fed-batch medium containing 50 mM of the peptide

Cys-Tyr [dipeptide]
concentration of lactic acid during culture: relatively low levels from the 5th day to the 10th day
antibody concentration after the 14-day culture [1]: about 2.0 g/L
antibody concentration higher than control: about 25%

Cys-Tyr-Ser [tripeptide]
concentration of lactic acid during culture: relatively low levels from the 3rd day to the 10th day
antibody concentration after the 14-day culture (fed-batch medium containing 25 mM of the tripeptide): about 2.1 g/L
antibody concentration after the 14-day culture [1]: about 2.1 g/L
antibody concentration higher than control: about 30%
